# Experimental data: patent US10495642B2, “Inhibitors of proteins specific for the secretome of a chondrocyte for use in the treatment of breast cancer metastasis” (ALBERT-LUDWIGS-UNIVERSITÄT FREIBURG, priority 2013, dated 2019)
# Key:
# MDA-MB-231 cells = experiment: Transwell migration of MDA-MB-231 cells towards chondrocyte conditioned media; type: cell-based, human; conditions: chondrocyte conditioned media as chemoattractant
# Protocol: Cell differentiation: Primary human monocytes, articular chondrocytes, and adipose tissue derived stromal cells were isolated from healthy donors and differentiated into osteoclasts (OC), articular chondrocytes (AC) and osteoblasts (OB) respectively. Cell lines: MDA-MB-231 (MDA), a metastatic, and MCF7A, an epithelial like breast cancer cell line, were used in this study.
# Serum free conditioned media: After differentiation, cells were washed 2 times with PBS and incubated with DMEM for 24 hours. After 24 hours, conditioned media was harvested and passed through a 0.45 μm filter.
# Migration: MDA-MB-231 cells were serum-starved for 24 hours before testing of the migration. Migration media was plated in the bottom of the well and a transwell insert (8 μm pores) was placed on top. 25.000 cells were seed on top of the filter. After 15 hours, the filters were washed and non-migrated cells were removed. Migrated cells were stained with H&E and counted under a microscope. Numbers were obtained as the average number of 5 random fields per filter.
# [1] = biological target: T1, recombinant human CXCL5/ENA-78 (Homo sapiens, UniProt P42830); experiment: Phage display identification of CXCL5 binding peptides; conditions: region of CXCL5 of FIGS. 7 and 8
# T1 sequence (P42830 37-114): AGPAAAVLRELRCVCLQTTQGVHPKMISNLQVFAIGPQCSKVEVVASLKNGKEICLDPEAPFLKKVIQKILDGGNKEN
# Description: Phage display: 12 amino acid binding peptides towards CXCL5 were identified using a commercial phage display system from […].
# 4T1 cells = conditions: cited from earlier work
# [2] = test system: MCF-7 and MDA-MB-231 as well as 4T1 cancer cell lines; conditions: addition of CXCL5, cited from earlier work
# [3] = test system: human pancreatic cancer, malignant melanoma, papillary thyroid cancer, breast cancer, colon cancer, and prostate cancer cells; conditions: human cancer cells with high basal TLR3 and Wnt5a; cited from earlier work
molecule,measurement,setting,value
H-Pro-Val-Trp-Ala-his-leu-Asn-Pro-Pro-Trp-Leu-Ala-NH2 [Peptide 1],migration of MDA-MB-231 cells in the presence of the chondrocyte secretome,MDA-MB-231 cells,reduces migration
same,binding to the pocket region of CXCL5,[1],bind to said region
"CXCL5: small cytokine of the CXC chemokine family, epithelial-derived neutrophil-activating peptide 78","tumor nodules in livers, lungs and intestines versus control group",4T1 cells; 4T1 mouse model,more numerous and larger
same,metastasis of 4T1 cells in mice,4T1 cells; CXCL5 0.5 mg/kg,increased the metastasis
same,migration and invasiveness,"[2]; MCF-7, MDA-MB-231 and 4T1 cancer cell lines",enhance the migration and invasiveness
same,cell proliferation,[2]; MCF-7 or MDA-MB-231 cancer cells,did not increase cell proliferation
"Cn1c(-c2ccccc2)c[nH]c1=S [Peptide C10, 5-phenylmethimazole]",cell growth and migration,[3],suppression of cell growth and migration
H-IGKVDSNSVSHA-NH2 [Peptide 2],migration of MDA-MB-231 cells in the presence of the chondrocyte secretome,MDA-MB-231 cells,reduces migration
same,binding to the pocket region of CXCL5,[1],bind to said region
